Drawing on BindingDB's records for doi:10.1021/jm00117a017 (Merck Sharp and Dohme Research Laboratories, 1988), this text covers IC50 for 9 compounds.

Target in the first assay: not listed separately
Briefly: Antibacterial activity against D-alanyl-D-alanine ligase from Streptococcus faecalis (ATCC 8043).
By IC50 is commonly meant the midpoint of a concentration-inhibition curve. The low end stands for higher potency, the high end for lower potency. In turn, `CCCCCCCC(C[PH](O)(O)C(C)=N)C(=O)O` (stereo not given) displayed an IC50 of 12.5 µM.

The next assay addresses D-alanine--D-alanine ligase (Enterococcus faecalis). The description is as above.
In turn, `CCCCC(C[PH](O)(O)C(=N)CC)C(=O)O` (stereo not given) [2-[(1-Amino-propyl)-hydroxy-phosphinoylmethyl]-hexanoic acid;hydrate] showed an IC50 of 155 µM.
`CCCCCCCC(C[PH](O)(O)C(C)=N)C(=O)O` (stereo not given) came in with an IC50 of 200 µM.
As to `CC(N)P(=O)(O)CC(Cc1ccccc1)C(=O)O` (stereo not given), the IC50 worked out at 50 µM.
`CCCC(CP(=O)(O)C(C)N)C(=O)O` (stereo not given) [2-[(1-Amino-ethyl)-hydroxy-phosphinoylmethyl]-pentanoic acid;hydrate] gave an IC50 of 20 µM.
Same read-out and setting: next, `CC(N)P(=O)(O)CC(CCCc1ccccc1)C(=O)O` (stereo not given) [2-[(1-Amino-ethyl)-hydroxy-phosphinoylmethyl]-5-phenyl-pentanoic acid;hydrate]: 50 µM; `CC(=N)[PH](O)(O)CC(CCc1ccccc1)C(=O)O` (stereo not given) [2-[(1-Amino-ethyl)-hydroxy-phosphinoylmethyl]-4-phenyl-butyric acid;hydrate]: 40 µM.
`C[C@H](N)P(=O)(O)O` [1-Ammonium-ethanephosphonic acid anion] registered an IC50 of 930 µM.
In the case of `CCC(C[PH](O)(O)C(C)=N)C(=O)O` (stereo not given) [2-[(1-Amino-ethyl)-hydroxy-phosphinoylmethyl]-butyric acid;hydrate], the midpoint of inhibition, the IC50, lay at 45 µM.
Take `CC(=N)[PH](O)(O)CC(CC(C)C)C(=O)O` (stereo not given) [2-[(1-Amino-ethyl)-hydroxy-phosphinoylmethyl]-4-methyl-pentanoic acid;hydrate]: half-maximal inhibition (IC50) required 30 µM.
